Patent US8133849B2, “Herbicidal compounds” (Syngenta Limited, priority 2007, dated 2012)

Assays:
Test in all cases: Example B2 herbicidal action, post-emergence, pots in glasshouse, damage score 0-10
Assay type in all cases: in vivo
Conditions in all cases: application post-emergence, rate 1000 g/ha, evaluated after 13 days
[1] = tested on: Ipomea hederaceae
Description: (§1) Seeds of a variety of test species were sown in standard soil in pots. After 8 days cultivation (post-emergence) under controlled conditions in a glasshouse (at 24/16° C., day/night; 14 hours light; 65% humidity), the plants were sprayed with an aqueous spray solution derived from the formulation of the technical active ingredient in acetone/water (50:50) solution containing 0.5% Tween 20 (polyoxyethelyene sorbitan monolaurate, CAS RN 9005-64-5). The test plants were then grown in a glasshouse under controlled conditions in a glasshouse (at 24/16° C., day/night; 14 hours light; 65% humidity) and watered twice daily. After 13 days, the test was evaluated (10=total damage to plant; 0=no damage to plant).

[2] = tested on: Solanum nigrum
Description: as §1

[3] = tested on: Setaria faberi
Description: as §1

[4] = tested on: Amaranthus retroflexus
Description: as §1

[5] = tested on: Echinochloa crus-galli
Description: as §1

SMILES	IPOHE damage score (10=total damage to plant; 0=no damage to plant) [1]	SOLNI damage score (10=total damage to plant; 0=no damage to plant) [2]	SETFA damage score (10=total damage to plant; 0=no damage to plant) [3]	AMARE damage score (10=total damage to plant; 0=no damage to plant) [4]	ECHCG damage score (10=total damage to plant; 0=no damage to plant) [5]
CCSC(=O)OC1=C(c2cc(C(F)(F)F)ccc2Cl)S(=O)(=O)N(CC)c2nccnc21 [Compound C87]	9	10	0	7	5
CC(C)C(=O)OC1=C(c2c(Cl)ccc(Cl)c2C(F)(F)F)S(=O)(=O)N(CC(F)F)c2nccnc21 [Compound C53]	4	5	5	8	8
COc1ccc(Cl)c(C2=C(OC(=O)C(C)C)c3nccnc3N(CC(F)F)S2(=O)=O)c1F [Compound C143]	8	10	0	1	4
O=S1(=O)C(c2c(F)ccc(Cl)c2Cl)=C(O)c2nccnc2N1CC(F)F [Compound D9, 3-(2,3-dichloro-6-fluoro-phenyl)-1-(2,2-difluoro-ethyl)-2,2-dioxo-1,2-dihydro-2-λ-6-thia-1,5,8-triaza-naphthalen-4-ol]	10	10	2	9	4
CCN1c2nccnc2C(OS(=O)(=O)C(F)(F)F)=C(c2ccc(Cl)cc2C(F)(F)F)S1(=O)=O [Compound C29, trifluoromethanesulfonic acid-3-(4-chloro-2-trifluoromethylphenyl)-1-ethyl-2,2-dioxo-1,2-dihydro-2-λ-6-thia-1,5,8-triaza-naphthalen-4-yl ester]	5	5	0	2	4
CC(C)(C)C(=O)OC1=C(c2c(F)cccc2C(F)(F)F)S(=O)(=O)N(CC(F)F)c2nccnc21 [Compound C78]	3	6	3	4	4
CCSC(=O)OC1=C(c2c(Cl)ccc(Cl)c2Cl)S(=O)(=O)N(C)c2nccnc21 [Compound C94]	9	9	2	6	6
CC(C)(C)C(=O)OC1=C(c2cc(C(F)(F)F)ccc2Br)S(=O)(=O)N(CC(F)F)c2nccnc21 [Compound C80]	10	10	0	10	6
CC(C)C(=O)OC1=C(c2ccc(Cl)cc2Cl)S(=O)(=O)N(CC(F)(F)F)c2nccnc21 [Compound C57]	10	10	3	10	4
CN1c2nccnc2C(OC(=O)C(C)(C)C)=C(c2c(Cl)ccc(Cl)c2Cl)S1(=O)=O [Compound C93]	6	6	0	0	3
O=S1(=O)C(c2cc(F)c(Cl)cc2Cl)=C(O)c2nccnc2N1CC(F)F [Compound D25]	9	10	4	10	3
CC(C)C(=O)OC1=C(c2cc(I)ccc2Cl)S(=O)(=O)N(CC(F)F)c2nccnc21 [Compound C54]	8	8	2	6	3
CC(C)C(=O)OC1=C(c2c(F)cccc2C(F)(F)F)S(=O)(=O)N(CC(F)F)c2nccnc21 [Compound C77]	10	10	9	10	9
CC(C)C(=O)OC1=C(c2ccc(C(F)(F)F)cc2C(F)(F)F)S(=O)(=O)N(CC(F)F)c2nccnc21 [Compound C127]	8	10	2	8	4
CCN1c2nccnc2C(OC(=O)C(C)C)=C(c2c(Cl)cccc2C(F)(F)F)S1(=O)=O [Compound C30]	9	10	5	8	6
CC(C)C(=O)OC1=C(c2c(Cl)ccc(Cl)c2Cl)S(=O)(=O)N(C)c2nccnc21 [Compound C92]	9	9	3	6	4
CC(C)C(=O)OC1=C(c2cc(C(F)(F)F)ccc2Cl)S(=O)(=O)N(CC(F)F)c2nccnc21 [Compound C91]	10	9	3	9	6
CCN1c2nccnc2C(O)=C(c2ccccc2C(F)(F)F)S1(=O)=O [Compound D33]	10	10	8	9	8
CN1c2nccnc2C(O)=C(c2c(Cl)ccc(Cl)c2Cl)S1(=O)=O [Compound D47]	8	10	1	8	4
CCN1c2nccnc2C(O)=C(c2cccc(Cl)c2Cl)S1(=O)=O [Compound D49]	6	8	1	4	1
COc1ccc(F)c(C2=C(OC(=O)C(C)C)c3nccnc3N(CC(F)F)S2(=O)=O)c1 [Compound C138]	2	7	0	0	1
CC(C)(C)C(=O)OC1=C(c2c(Cl)cccc2C(F)(F)F)S(=O)(=O)N(CC(F)F)c2nccnc21 [Compound C31]	8	9	7	8	8
CCSC(=O)OC1=C(c2c(F)ccc(Cl)c2Cl)S(=O)(=O)N(CC(F)F)c2nccnc21 [Compound C32]	9	8	1	8	7
O=S1(=O)C(c2c(F)ccc(Br)c2Cl)=C(O)c2nccnc2N1CC(F)F [Compound D14]	9	9	5	9	7
